Laboratory results published in patent publication US8901316B2, “Process for preparing aminoadamantyl carbamate derivatives” (Shionogi & Co., Ltd., priority 2010, dated 2014).

Assay: stability to temperature and humidity changes (storage/handling)
Assay type: physicochemical
Conditions: solid; storage without desiccant agent or without being sealed

Substance: aminoadamantane carbamate hydrochloride dihydrate [III-2]
- stability to temperature and humidity changes: stable to temperature and humidity changes
